Laboratory results: US7960408B2, “Quinolinyl and benzothiazolyl modulators” (Amgen Inc., priority 2000, dated 2011)

biological target: T1, PPARγ (Homo sapiens, UniProt P37231); experiment: PPARγ ligand binding assay utilizing [3H]-BRL 49653 as the radioligand; conditions: concentration required to reduce by 50% the specific binding of [3H]-BRL 49653
T1 construct: made in house
T1 sequence (P37231 1-505): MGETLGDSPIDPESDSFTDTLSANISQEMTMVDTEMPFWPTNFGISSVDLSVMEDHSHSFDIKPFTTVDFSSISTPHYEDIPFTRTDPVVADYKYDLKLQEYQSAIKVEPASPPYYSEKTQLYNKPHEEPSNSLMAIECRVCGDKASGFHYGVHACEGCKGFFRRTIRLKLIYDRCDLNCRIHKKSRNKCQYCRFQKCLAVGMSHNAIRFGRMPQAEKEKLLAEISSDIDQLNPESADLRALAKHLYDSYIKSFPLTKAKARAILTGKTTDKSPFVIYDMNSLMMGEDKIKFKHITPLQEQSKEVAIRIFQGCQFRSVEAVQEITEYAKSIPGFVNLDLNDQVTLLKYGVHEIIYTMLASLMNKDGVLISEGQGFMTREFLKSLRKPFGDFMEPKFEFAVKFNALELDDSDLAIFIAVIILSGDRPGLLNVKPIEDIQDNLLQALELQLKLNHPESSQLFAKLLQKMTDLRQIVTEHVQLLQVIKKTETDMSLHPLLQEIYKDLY
Excerpt: The compounds of the present invention can be evaluated for modulation of the PPARγ receptor using assays such as those described in Jiang, et al., Nature 391:82-86 (1998), Ricote, et al., Nature 391:79-82 (1998) and Lehmann, et al., J. Biol. Chem. 270(12): 12953-12956 (1995). Alternatively, the compounds can be evaluated for their ability to displace radiolabeled BRL 49653 from a PPARγ-GST fusion protein as follows:
PPARγ-GST fusion protein (prepared according to standard procedures), [^3H]—BRL 49653 having 50 Ci/mmol specific activity, Polyfiltronics Unifilter 350 filtration plate and glutathione-Sepharose® beads (from Pharmacia: washed twice with 10× binding buffer in which BSA and DTI can be left out).
Binding buffer (10 mM Tris-HCl, pH 8.0, 50 mM KCI, 10 mM DTT, 0.02% BSA and 0.01% NP-40) is added in 80-μL amounts to the wells of the filtration plate. The test compound is then added in 10 μL of DMSO. The PPARγ-GST fusion protein and radiolabeled BRL compound are premixed in binding buffer containing 10 mM DTT and added in 10-μL amounts to the wells of the plate to provide final concentrations of 1 μg/well of PPARγ-GST fusion protein and 10 nM [^3H]—BRL 49653 compound. The plate is incubated for 15 min. Glutathione-agarose bead is added in 50 μL of binding buffer, and the plate is vigorously shaken for one hour. The plate is washed four times with 200 μL/well of binding buffer (without BSA and DTT). The bottom of the plate is sealed and 200 μL/well of scintillation cocktail is added. The top of the plate is then sealed and the radioactivity is determined.
IC50 values are defined as the concentration of test compounds required to reduce by 50% the specific binding of [^3H]—BRL 49653 and are represented by (+) <30 μM; (++) <10 μM; (+++) <1 μM.

IC50 [nM]	Compound
< 1000	COc1cccc2sc(Oc3c(Cl)cc(NS(=O)(=O)c4ccc(C(F)(F)F)cc4Cl)cc3Cl)nc12 [Compound 427, 2-Chloro-N-[3,5-dichloro-4-(4-methoxy-benzothiazol-2-yloxy)-phenyl]-4-trifluoromethyl-benzenesulfonamide]
< 1000	O=S(=O)(Nc1cc(Cl)cc(Oc2nc3ccc(Cl)cc3s2)c1)c1ccc(C(F)(F)F)cc1Cl [Compound 302, 2-Chloro-N-[3-chloro-5-(6-chloro-benzothiazol-2-yloxy)-phenyl]-4-trifluoromethyl-benzenesulfonamide]
< 1000	O=S(=O)(Nc1cc(Cl)cc(Cc2nc3cc(Cl)ccc3s2)c1)c1ccc(Cl)cc1Cl [Compound 332, 2,4-Dichloro-N-[3-chloro-5-(5-chloro-benzothiazol-2-ylmethyl)-phenyl]-benzenesulfonamide]
1000 to 10000	COc1ccc2nc(Oc3cc(Cl)cc(NS(=O)(=O)c4ccc(C(F)(F)F)cc4Cl)c3)sc2c1 [Compound 307, 2-Chloro-N-[3-chloro-5-(6-methoxy-benzothiazol-2-yloxy)-phenyl]-4-trifluoromethyl-benzenesulfonamide]
1000 to 10000	O=S(=O)(Nc1cc(Oc2nc3cc(Cl)ccc3s2)cc(Oc2nc3cc(Cl)ccc3s2)c1)c1ccc(C(F)(F)F)cc1Cl [Compound 322, N-[3,5-Bis-(5-chloro-benzothiazol-2-yloxy)-phenyl]-2-chloro-4-trifluoromethyl-benzenesulfonamide]
< 1000	CS(=O)(=O)c1ccc2nc(Oc3c(Cl)cc(NS(=O)(=O)c4ccc(C(F)(F)F)cc4Cl)cc3Cl)sc2c1 [Compound 441, 2-Chloro-N-[3,5-dichloro-4-(6-methanesulfonyl-benzothiazol-2-yloxy)-phenyl]-4-trifluoromethyl-benzenesulfonamide]
< 1000	O=S(=O)(Nc1cc(Cl)c(Sc2cnc3ccccc3c2)c(Cl)c1)c1ccccc1 [Compound 4.2]
< 1000	COc1cccc2sc(Oc3cc(Cl)cc(NS(=O)(=O)c4cc(C)c(Cl)cc4Cl)c3)nc12 [Compound 298, 2,4-Dichloro-N-[3-chloro-5-(4-methoxy-benzothiazol-2-yloxy)-phenyl]-5-methyl-benzenesulfonamide]
< 1000	COc1cccc2sc(Oc3c(Cl)cc(NS(=O)(=O)c4ccc(Cl)cc4Cl)cc3Cl)nc12 [Compound 428, 2,4-Dichloro-N-[3,5-dichloro-4-(4-methoxy-benzothiazol-2-yloxy)-phenyl]-benzenesulfonamide]
< 1000	O=S(=O)(Nc1cc(Cl)c(Oc2nc3ccc(Cl)cc3s2)c(Cl)c1)c1ccc(Br)cc1OC(F)(F)F [Compound 433, 4-Bromo-N-[3,5-dichloro-4-(6-chloro-benzothiazol-2-yloxy)-phenyl]-2-trifluoromethoxy-benzenesulfonamide]
< 1000	CS(=O)(=O)c1ccc2nc(Oc3ccc(NS(=O)(=O)c4ccc(C(F)(F)F)cc4Cl)cc3Cl)sc2c1 [Compound 445, 2-Chloro-N-[3-chloro-4-(6-methanesulfonyl-benzothiazol-2-yloxy)-phenyl]-4-trifluoromethyl-benzenesulfonamide]
1000 to 10000	N#Cc1ccc2sc(Oc3cc(Cl)cc(NS(=O)(=O)c4ccc(C(F)(F)F)cc4Cl)c3)nc2c1 [Compound 286, 2-Chloro-N-[3-chloro-5-(5-cyano-benzothiazol-2-yloxy)-phenyl]-4-trifluoromethyl-benzenesulfonamide]
1000 to 10000	O=S(=O)(Nc1cc(Cl)c(Oc2nc3c(Cl)cccc3s2)c(Cl)c1)c1ccc(Cl)cc1Cl [Compound 425, 2,4-Dichloro-N-[3,5-dichloro-4-(4-chloro-benzothiazol-2-yloxy)-phenyl]-benzenesulfonamide]
< 1000	Cc1ccc2nc(Oc3cc(Cl)cc(NS(=O)(=O)c4ccc(Cl)cc4Cl)c3)sc2c1 [Compound 300, 2,4-Dichloro-N-[3-chloro-5-(6-methyl-benzothiazol-2-yloxy)-phenyl]-benzenesulfonamide]
< 1000	CS(=O)(=O)Nc1ccc2nc(Oc3ccc(NS(=O)(=O)c4ccc(C(F)(F)F)cc4Cl)cc3Cl)sc2c1 [Compound 444, 2-Chloro-N-[3-chloro-4-(6-methanesulfonylamino-benzothiazol-2-yloxy)-phenyl]-4-trifluoromethyl-benzenesulfonamide]
10000 to 30000	Cc1cccc2sc(Oc3c(Cl)cc(NS(=O)(=O)c4ccc(C(F)(F)F)cc4Cl)cc3Cl)nc12 [Compound 505, 2-Chloro-N-[3,5-dichloro-4-(4-methyl-benzothiazol-2-oxy)-phenyl]-4-trifluoromethylbenzenesulfonamide]
< 1000	Cc1cc(S(=O)(=O)Nc2cc(Cl)cc(Oc3nc4ccc(F)cc4s3)c2)c(Cl)cc1Cl [Compound 306, 2,4-Dichloro-N-[3-chloro-5-(6-fluoro-benzothiazol-2-yloxy)-phenyl]-5-methyl-benzenesulfonamide]
> 30000	COc1ccc(OC)c(S(=O)(=O)Nc2cc(Cl)cc(Oc3nc4cc(Cl)ccc4s3)c2)c1 [Compound 502, N-[3-Chloro-5-(5-chloro-benzothiazole-2-yloxy)-phenyl]-2,5-dimethoxybenzenesulfonamide]
< 1000	Cc1cc(S(=O)(=O)Nc2cc(Cl)c(Oc3nc4c(Cl)cccc4s3)c(Cl)c2)c(Cl)cc1Cl [Compound 426, 2,4-Dichloro-N-[3,5-dichloro-4-(4-chloro-benzothiazol-2-yloxy)-phenyl]-5-methyl-benzenesulfonamide]
< 1000	O=S(=O)(Nc1cc(Cl)c(Cc2ccc3ccccc3n2)c(Cl)c1)c1ccc(C(F)(F)F)cc1Cl [Compound 224, 2-Chloro-N-(3,5-dichloro-4-quinolin-2-ylmethyl-phenyl)-4-trifluoromethyl-benzenesulfonamide]
< 1000	COc1cccc2sc(Oc3c(Cl)cc(NS(=O)(=O)c4cc(C)c(Cl)cc4Cl)cc3Cl)nc12 [Compound 429, 2,4-Dichloro-N-[3,5-dichloro-4-(4-methoxy-benzothiazol-2-yloxy)-phenyl]-5-methyl-benzenesulfonamide]
1000 to 10000	O=S(=O)(Nc1cc(Cl)c(Oc2nc3ccc(Cl)cc3s2)c(Cl)c1)c1ccc(OC(F)(F)F)cc1 [Compound 434, N-[3,5-Dichloro-4-(6-chloro-benzothiazol-2-yloxy)-phenyl]-4-trifluoromethoxy-benzenesulfonamide]
< 1000	O=[N+]([O-])c1ccc2nc(Oc3ccc(NS(=O)(=O)c4ccc(C(F)(F)F)cc4Cl)cc3Cl)sc2c1 [Compound 442, 2-Chloro-N-[3-chloro-4-(6-nitro-benzothiazol-2-yloxy)-phenyl]-4-trifluoromethyl-benzenesulfonamide]
10000 to 30000	O=S(=O)(Nc1cc(Cl)cc(Oc2nc3c(Cl)cccc3s2)c1)c1ccc(C(F)(F)F)cc1Cl [Compound 290, 2-Chloro-N-[3-chloro-5-(4-chloro-benzothiazol-2-yloxy)-phenyl]-4-trifluoromethyl-benzenesulfonamide]
< 1000	O=S(=O)(Nc1cc(Cl)c([S+]([O-])c2cnc3ccccc3c2)c(Cl)c1)c1ccc(Cl)cc1Cl (centres unmarked) [Compound 5.2]
< 1000	O=[N+]([O-])c1cc(C(F)(F)F)ccc1S(=O)(=O)Nc1cc(Cl)c(Oc2nc3ccc(Cl)cc3s2)c(Cl)c1 [Compound 435, N-[3,5-Dichloro-4-(6-chloro-benzothiazol-2-yloxy)-phenyl]-2-nitro-4-trifluoromethyl-benzenesulfonamide]
1000 to 10000	Cc1cc(S(=O)(=O)Nc2cc(Cl)cc(Oc3nc4c(Cl)cccc4s3)c2)c(Cl)cc1Cl [Compound 292, 2,4-Dichloro-N-[3-chloro-5-(4-chloro-benzothiazol-2-yloxy)-phenyl]-5-methyl-benzenesulfonamide]
1000 to 10000	COc1cccc2sc(Oc3cc(Cl)cc(NS(=O)(=O)c4ccc(Cl)cc4Cl)c3)nc12 [Compound 297, 2,4-Dichloro-N-[3-chloro-5-(4-methoxy-benzothiazol-2-yloxy)-phenyl]-benzenesulfonamide]

Compound	IC50 [nM]
2,4-Dichloro-N-[3,5-dichloro-4-(6-methyl-quinoln-3-yloxy)-phenyl]-5-methyl-benzenesulfonamide [Compound 49]	< 1000
